Values quoted from earlier work as cited in patent EP2055233B1 (priority 2003, dated 2004).

Columns and labels:
[1] = in vivo, iv

CC(C)c1cccc(C(C)C)c1O [propofol, 2,6-diisopropylphenol]
dose recovered in urine as hydroxylated and conjugated metabolites: 88%
plasma concentration [1]: 1000 to 10000 ng/mL
